Reference: ChEMBL document CHEMBL1123357, “Chemotherapeutic approaches to the treatment of the acquired immune deficiency syndrome (AIDS)” (1986)
In brackets after ≈: the same amount, converted by molar mass.

Tests used:
[1] = system: ATH-8 cell line; experiment: Selectivity index expressed as ratio of compound concentration required to reduce the growth of normal uninfected ATH8 cells by 50% to the compound concentration (MIC); assay type: functional, Homo sapiens
[2] = system: ATH-8 cell line; experiment: Minimum inhibitory concentration of the compound, achieving a complete protection of ATH8 cells against the cytopathic effect of HTLV-III / LAV […]; assay type: functional; details: Homo sapiens

Structure (SMILES) | SI [1] | MIC [2]
O=C(O)C1=CC(=C(c2ccc(O)c(C(=O)O)c2)c2ccc(O)c(C(=O)O)c2)C=CC1=O [AURINTRICARBOXYLIC ACID] | >2.5 | 47 µM (≈ 19.9 µg/mL)
Cc1cc(-c2ccc(/N=N/c3ccc4c(S(=O)(=O)[O-])cc(S(=O)(=O)[O-])c(N)c4c3O)c(C)c2)ccc1/N=N/c1ccc2c(S(=O)(=O)[O-])cc(S(=O)(=O)[O-])c(N)c2c1O.[Na+].[Na+].[Na+].[Na+] [EVANS BLUE] | >4 | 26 µM
O=C(O)P(=O)(O)O [FOSCARNET] | >1 | 350 µM (≈ 44.1 µg/mL)
NC(=O)c1ncn([C@@H]2O[C@H](CO)[C@@H](O)[C@H]2O)n1 [RIBAVIRIN] | <0.3 | > 400 µM
Cc1ccc(C(=O)Nc2ccc(S(=O)(=O)O)c3cc(S(=O)(=O)O)cc(S(=O)(=O)O)c23)cc1NC(=O)c1cccc(NC(=O)Nc2cccc(C(=O)Nc3cc(C(=O)Nc4ccc(S(=O)(=O)O)c5cc(S(=O)(=O)O)cc(S(=O)(=O)O)c45)ccc3C)c2)c1 [SURAMIN] | 5 | 35 µM (≈ 45.4 µg/mL)
Nc1ccn([C@H]2CC[C@@H](CO)O2)c(=O)n1 [ZALCITABINE] | 50 | 0.5 µM (≈ 0.106 µg/mL)
Cc1cn([C@H]2C[C@H](N=[N+]=[N-])[C@@H](CO)O2)c(=O)[nH]c1=O [ZIDOVUDINE] | >50 | 1 µM (≈ 0.267 µg/mL)
